Test results taken from patent publication US20060148030A1, “Nuclear receptor err y 3” (FUJISAWA PHARMACEUTICAL CO., LTD, priority 2002, published 2006).

Molecular target: T1, GR (Homo sapiens, UniProt P04150)
T1 construct: expressed in transfected cells; host or cells: CV-1 (African green monkey kidney)
T1 sequence (P04150 1-777): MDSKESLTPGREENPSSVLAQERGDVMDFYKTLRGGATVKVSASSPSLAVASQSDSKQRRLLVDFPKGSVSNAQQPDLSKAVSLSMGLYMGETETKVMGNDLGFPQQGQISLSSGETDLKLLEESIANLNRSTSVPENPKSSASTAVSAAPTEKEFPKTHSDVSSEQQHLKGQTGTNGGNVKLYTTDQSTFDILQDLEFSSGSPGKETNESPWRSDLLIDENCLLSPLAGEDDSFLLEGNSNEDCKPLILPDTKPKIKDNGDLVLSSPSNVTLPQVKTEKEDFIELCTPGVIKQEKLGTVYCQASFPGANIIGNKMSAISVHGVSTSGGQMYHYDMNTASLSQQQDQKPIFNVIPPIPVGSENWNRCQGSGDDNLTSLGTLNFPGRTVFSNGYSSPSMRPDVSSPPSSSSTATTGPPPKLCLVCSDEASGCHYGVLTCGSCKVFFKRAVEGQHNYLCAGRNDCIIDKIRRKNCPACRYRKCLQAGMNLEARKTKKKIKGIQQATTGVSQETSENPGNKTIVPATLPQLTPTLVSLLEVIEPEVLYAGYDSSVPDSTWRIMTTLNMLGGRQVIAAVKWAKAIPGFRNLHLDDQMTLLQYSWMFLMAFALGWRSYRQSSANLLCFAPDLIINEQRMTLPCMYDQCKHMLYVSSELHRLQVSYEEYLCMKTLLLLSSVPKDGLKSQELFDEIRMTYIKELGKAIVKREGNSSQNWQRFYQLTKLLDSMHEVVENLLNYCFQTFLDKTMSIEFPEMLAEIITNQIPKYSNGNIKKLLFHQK
Test: Reporter gene assay, ERRγ3 coexisted with GR, pGRE-luc in CV-1 cells
Assay type: cell-based
Conditions: 10^−5 M dexamethasone
Procedure: Transfection was performed as follows: CV-1 cells were resuspended in DMEM supplemented with 10% fetal bovine serum, 2000 U/l of penicillin G, and 100 mg/l of streptomycin to a concentration of 2×10^5 cells/2.5 ml. This was then seeded to a 6-well plate at 2.5 ml per well, and incubated for 18-24 hours in a CO2 incubator at 37° C. and 5% CO2. 1 μg of each of the expression plasmids for the transcription factors, the luciferase reporter plasmid, and another luciferase reporter plasmid used for normalization of the measured values (pRL-TK), were dissolved in Opti-MEM (Gibco BRL), to a total of 150 μl. 7 μl of the transfection reagent LipofectAMINE 2000 (Gibco BRL) was diluted in 143 μl of Opti-MEM, and this was added to the mixture drop by drop while stirring. The mixture was incubated for 20 minutes. […] Luciferase activity was measured using the Dual-Luciferase™ Reporter Assay System (Promega). […] The protocol for measurement was as follows: 50 μl of Luciferase Assay Reagent II was added to each well, stirred for 0.3 seconds, and measured for one second. 50 μl of Stop&Glo™ Reagent was then added, stirred for 0.3 seconds, and measured for one second. The measured values for firefly luciferase activity were corrected by dividing by the value for the Renilla luciferase activity, the internal control. Average values and standard errors were calculated from triplicate samples. […]

## 4-hydroxytamoxifen [reference compound]
10^−5 M 4-hydroxytamoxifen, FIG. 25B
  effect of 4-hydroxytamoxifen on the inhibitory function of ERRγ3 on GR: reduced ERRγ3's inhibitory function

B1: ERRγ3: novel ERRγ isoform, nuclear receptor protein of 396 amino acids (SEQ ID NO: 2) lacking part of the DNA binding domain (protein, listed as Homo sapiens)
chain: MSNKDRHIDSSCSSFIKTEPSSPASLTDSVNHHSPGGSSDASGSYSSTMNGHQNGLDSPPLYPSAPILGGSGPVRKLYDDCSSTIVEDPQTKCEYMLNSMPKRLCLVCGDIASGYHYGVASCEACKAFFKRTIQGVRLDRVRGGRQKYKRRIDAENSPYLNPQLAQPAKKPYNKIVSHLLVAEPEKIYAMPDPTVPDSDIKALTTLCDLADRELVVIIGWAKHIPGFSTLSLADQMSLLQSAWMEILILGVVYRSLSFEDELVYADDYIMDEDQSKLAGLLDLNNAILQLVKKYKSMKLEKEEFVTLKAIALANSDSMHIEDVEAVQKLQDVLHEALQDYEAGQHMEDPRRAGKMLMTLPLLRQTSTKAVQHFYNIKLEGKVPMHKLFLEMLEAKV
FIG. 25
  effect of ERRγ3 on the transcriptional stimulation activity of GR: inhibited GR's transcriptional stimulation activity
